The supplement of paper PMC10307832

Columns and labels:
Assay in all cases: relative viability (nuclei count vs DMSO), 5 days (fraction); higher = more cells survive
[1] = test system: NCI-H1437
In short: (§1)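 Five library-drug doses in √10 steps were combined with a fixed anchor-drug dose, or a single drug was given alone, by pin tool to lung cancer cell lines in 1536-well plates the day after seeding. Nuclei were stained and counted after 5 days. Relative viability is the nuclei count in treated wells over that in vehicle wells, taken as the median of duplicate plates.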

[2] = test system: NCI-H1648
In short: as §1

[3] = test system: NCI-H1355
In short: as §1

[4] = test system: NCI-H1703
In short: as §1

[5] = test system: NCI-H596
In short: as §1

[6] = test system: NCI-H2342
In short: as §1

[7] = test system: LCLC-97TM1
In short: as §1

Structure (SMILES): Cc1csc(=NC2CCCCC2)n1/N=C/c1ccc(O)c(O)c1O [MIM1] + NC(=O)Nc1cc(-c2cccc(F)c2)sc1C(=O)N[C@H]1CCCNC1 [AZD7762] (partner 0.2 µM)
- relative viability ([1]; first compound 0.2 µM): 1.02
- relative viability ([1]; first compound 0.6325 µM): 1.12
- relative viability ([1]; first compound 2 µM): 1.18
- relative viability ([1]; first compound 6.325 µM): 0.916
- relative viability ([1]; first compound 20 µM): 0.666
- relative viability ([2]; first compound 0.2 µM): 0.615
- relative viability ([2]; first compound 0.6325 µM): 0.718
- relative viability ([2]; first compound 2 µM): 0.679
- relative viability ([2]; first compound 6.325 µM): 0.677
- relative viability ([2]; first compound 20 µM): 0.436
- relative viability ([3]; first compound 0.2 µM): 0.802
- relative viability ([3]; first compound 0.6325 µM): 0.69
- relative viability ([3]; first compound 2 µM): 0.814
- relative viability ([3]; first compound 6.325 µM): 0.529
- relative viability ([3]; first compound 20 µM): 0.673
- relative viability ([4]; first compound 0.2 µM): 0.124
- relative viability ([4]; first compound 0.6325 µM): 0.134
- relative viability ([4]; first compound 2 µM): 0.107
- relative viability ([4]; first compound 6.325 µM): 0.112
- relative viability ([4]; first compound 20 µM): 0.122
- relative viability ([5]; first compound 0.2 µM): 1.17
- relative viability ([5]; first compound 0.6325 µM): 1.22
- relative viability ([5]; first compound 2 µM): 1.03
- relative viability ([5]; first compound 6.325 µM): 1.11
- relative viability ([5]; first compound 20 µM): 0.819
- relative viability ([6]; first compound 0.2 µM): 0.414
- relative viability ([6]; first compound 0.6325 µM): 0.475
- relative viability ([6]; first compound 2 µM): 0.431
- relative viability ([6]; first compound 6.325 µM): 0.477
- relative viability ([6]; first compound 20 µM): 0.543
- relative viability ([7]; first compound 0.2 µM): 0.231
- relative viability ([7]; first compound 0.6325 µM): 0.243
- relative viability ([7]; first compound 2 µM): 0.196
- relative viability ([7]; first compound 6.325 µM): 0.145
- relative viability ([7]; first compound 20 µM): 0.0668

Structure (SMILES): Cc1cn(-c2cc(NC(=O)c3ccc(C)c(Nc4nccc(-c5cccnc5)n4)c3)cc(C(F)(F)F)c2)cn1 [Nilotinib] + CC(=O)c1c(C)c2cnc(Nc3ccc(N4CCNCC4)cn3)nc2n(C2CCCC2)c1=O [Palbociclib] (partner 0.5 µM)
- relative viability ([1]; first compound 0.001 µM): 0.28
- relative viability ([1]; first compound 0.003162 µM): 0.304
- relative viability ([1]; first compound 0.01 µM): 0.308
- relative viability ([1]; first compound 0.03162 µM): 0.276
- relative viability ([1]; first compound 0.1 µM): 0.32
- relative viability ([2]; first compound 0.001 µM): 0.244
- relative viability ([2]; first compound 0.003162 µM): 0.319
- relative viability ([2]; first compound 0.01 µM): 0.294
- relative viability ([2]; first compound 0.03162 µM): 0.254
- relative viability ([2]; first compound 0.1 µM): 0.268
- relative viability ([3]; first compound 0.001 µM): 0.423
- relative viability ([3]; first compound 0.003162 µM): 0.457
- relative viability ([3]; first compound 0.01 µM): 0.486
- relative viability ([3]; first compound 0.03162 µM): 0.494
- relative viability ([3]; first compound 0.1 µM): 0.468
- relative viability ([6]; first compound 0.001 µM): 0.508
- relative viability ([6]; first compound 0.003162 µM): 0.559
- relative viability ([6]; first compound 0.01 µM): 0.49
- relative viability ([6]; first compound 0.03162 µM): 0.489
- relative viability ([6]; first compound 0.1 µM): 0.478
- relative viability ([7]; first compound 0.001 µM): 0.222
- relative viability ([7]; first compound 0.003162 µM): 0.245
- relative viability ([7]; first compound 0.01 µM): 0.225
- relative viability ([7]; first compound 0.1 µM): 0.254

Structure (SMILES): CCNC(=O)c1noc(-c2cc(C(C)C)c(O)cc2O)c1-c1ccc(CN2CCOCC2)cc1 [Luminespib] + Nc1nc2[nH]cc(CCc3ccc(C(=O)N[C@@H](CCC(=O)O)C(=O)O)cc3)c2c(=O)[nH]1 [Pemetrexed] (partner 0.2 µM)
- relative viability ([1]; first compound 0.002 µM): 0.305
- relative viability ([1]; first compound 0.006325 µM): 0.305
- relative viability ([1]; first compound 0.02 µM): 0.347
- relative viability ([1]; first compound 0.06325 µM): 0.266
- relative viability ([1]; first compound 0.2 µM): 0.156
- relative viability ([2]; first compound 0.002 µM): 0.753
- relative viability ([2]; first compound 0.006325 µM): 0.683
- relative viability ([2]; first compound 0.02 µM): 0.899
- relative viability ([2]; first compound 0.06325 µM): 0.749
- relative viability ([2]; first compound 0.2 µM): 0.267
- relative viability ([3]; first compound 0.002 µM): 1.12
- relative viability ([3]; first compound 0.006325 µM): 1.02
- relative viability ([3]; first compound 0.02 µM): 0.627
- relative viability ([3]; first compound 0.06325 µM): 0.895
- relative viability ([3]; first compound 0.2 µM): 0.14
- relative viability ([5]; first compound 0.002 µM): 0.526
- relative viability ([5]; first compound 0.006325 µM): 0.493
- relative viability ([5]; first compound 0.02 µM): 0.548
- relative viability ([5]; first compound 0.06325 µM): 0.518
- relative viability ([5]; first compound 0.2 µM): 0.528
- relative viability ([6]; first compound 0.002 µM): 0.776
- relative viability ([6]; first compound 0.006325 µM): 0.755
- relative viability ([6]; first compound 0.02 µM): 0.548
- relative viability ([6]; first compound 0.06325 µM): 0.749
- relative viability ([6]; first compound 0.2 µM): 0.454
- relative viability ([7]; first compound 0.002 µM): 0.189
- relative viability ([7]; first compound 0.006325 µM): 0.164
- relative viability ([7]; first compound 0.06325 µM): 0.0959
- relative viability ([7]; first compound 0.2 µM): 0.0922
